Patent US20060069132A1, “Azolecarboxamide herbicides” (priority 2004, published 2006)

Assays:
wheat = experiment: Test B postemergence herbicide test; type: in vivo, Triticum aestivum; design: key to Wheat plant response rating: 0 = no effect, 100 = complete control; conditions: scale 0 (no effect) to 100 (complete control)
Outline: (§1)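 Treated at 2-leaf (paddy) or 1–4-leaf, 2–18 cm (postemergence); greenhouse 13–15 d; visual score vs control, 0 none to 100 complete control; dash = not tested.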

ducksalad = experiment: Test B flooded paddy test; type: in vivo, Heteranthera limosa; conditions: 1000 g ai/ha, visual rating, scale 0 to 100 (0 no effect, 100 complete control), 13 to 15 days
Outline: (§2)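 Formulated test chemicals went onto postemergence plants measuring 2 to 18 cm, at one to four leaves. For the paddy assay, species had reached two leaves. Scoring took place 13–15 days later by eye, relative to untreated plants, using 0 for no effect up to 100 for full control.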

[1] = test system: small flower umbrella sedge; experiment: Test B flooded paddy test; type: in vivo, Cyperus difformis; conditions: 1000 g ai/ha, visual rating, scale 0 to 100 (0 no effect, 100 complete control), 13 to 15 days
Outline: as §2

wild oat = experiment: Test B postemergence herbicide test; type: in vivo, Avena fatua; conditions: scale 0 (no effect) to 100 (complete control)
Outline: as §1

large crabgrass = experiment: Test B pre-/postemergence herbicide test; type: in vivo, Digitaria sanguinalis
Outline: (§3)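 Pre: seeds sown, then sprayed. Post: 1–4-leaf plants (2–18 cm) sprayed at the same time. Paddy: flooded, treated at 2-leaf stage. Formulation: non-phytotoxic solvent with surfactant. Greenhouse 13–15 days; visual 0–100 score relative to controls.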

velvetleaf = experiment: Test B pre-/postemergence herbicide test; type: in vivo, Abutilon theophrasti
Outline: as §3

barnyardgrass [2] = experiment: Test B flooded paddy test; type: in vivo, Echinochloa crus-galli; conditions: 1000 g ai/ha, visual rating, scale 0 to 100 (0 no effect, 100 complete control), 13 to 15 days
Outline: as §2

giant foxtail = experiment: Test B pre-/postemergence herbicide test; type: in vivo, Setaria faberi
Outline: as §3

cocklebur = experiment: Test B pre-/postemergence herbicide test; type: in vivo, Xanthium strumarium
Outline: (§4)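 Plants compared with untreated controls 13–15 days post-treatment and given a visual 0–100 injury score. Applications: preemergence to seeds; postemergence at 1- to 4-leaf (2–18 cm); paddy species flooded, 2-leaf stage. Vehicle non-phytotoxic, surfactant included.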

morningglory = experiment: Test B pre-/postemergence herbicide test; type: in vivo, Ipomoea coccinea
Outline: as §4

Surinam grass = experiment: Test B pre-/postemergence herbicide test; type: in vivo, Urochloa decumbens
Outline: as §3

pigweed = experiment: Test B pre-/postemergence herbicide test; type: in vivo, Amaranthus retroflexus
Outline: as §3

barnyardgrass [3] = experiment: Test B pre-/postemergence herbicide test; type: in vivo, Echinochloa crus-galli
Outline: as §4

lambsquarters = experiment: Test B pre-/postemergence herbicide test; type: in vivo, Chenopodium album
Outline: as §3

rice = experiment: Test B flooded paddy test; type: in vivo, Oryza sativa; conditions: 1000 g ai/ha, visual rating, scale 0 to 100 (0 no effect, 100 complete control), 13 to 15 days
Outline: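 Plants grow to 1- to 4-leaf stage (2–18 cm) for postemergence spraying, or to 2-leaf stage for the paddy test. Formulated compound is applied. Greenhouse holding lasts 13–15 days. Response is scored visually relative to controls, 0 no effect to 100 complete control; a dash means no result.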

[4] = Postemergence, 500 g ai/ha, visual rating after 13 to 15 days
[5] = postemergence, 125 g ai/ha, visual rating
[6] = 500 g ai/ha, visual rating 0-100, 0 no effect, 100 complete control, preemergence
[7] = Postemergence, 500 g ai/ha, visual rating after 13 to 15 days, scale 0 (no effect) to 100 (complete control)
[8] = postemergence, 125 g ai/ha, visual rating, scale 0 (no effect) to 100 (complete control)
[9] = preemergence, 125 g ai/ha, 0 to 100 scale, 0 is no effect, 100 is complete control

CCn1nc(C(C)(C)C)cc1C(=O)Nc1cccc(C(C)=NO)c1 [Compound 108]
Plant response rating, Wheat (wheat; [4]): 20 | Wheat plant response rating (wheat; [5]): 10 | Ducksalad plant response rating (ducksalad): 90 | Sedge, Umbrella plant response rating [1]: 90 | Plant response rating, Oat, Wild (wild oat; [4]): 50 | Oat, Wild plant response rating (wild oat; [5]): 20 | Plant response rating, Crabgrass, Large (large crabgrass; [6]): 100 | Plant response rating, Crabgrass, Large (large crabgrass; [7]): 70 | Crabgrass, Large plant response rating (large crabgrass; [8]): 20 | Plant response rating, Crabgrass, Large (large crabgrass; [9]): 100 | Plant response rating, Velvetleaf (velvetleaf; [6]): 100 | Plant response rating, Velvetleaf (velvetleaf; [7]): 70 | Velvetleaf plant response rating (velvetleaf; [8]): 50 | Plant response rating, Velvetleaf (velvetleaf; [9]): 80 | Barnyardgrass plant response rating (barnyardgrass [2]): 80 | Plant response rating, Foxtail, Giant (giant foxtail; [6]): 100 | Plant response rating, Foxtail, Giant (giant foxtail; [7]): 30 | Foxtail, Giant plant response rating (giant foxtail; [8]): 10 | Plant response rating, Foxtail, Giant (giant foxtail; [9]): 90 | Plant response rating, Cocklebur (cocklebur; [6]): 30 | Plant response rating, Cocklebur (cocklebur; [7]): 90 | Cocklebur plant response rating (cocklebur; [8]): 70 | Plant response rating, Cocklebur (cocklebur; [9]): 10 | Plant response rating, Morningglory (morningglory; [6]): 70 | Plant response rating, Morningglory (morningglory; [7]): 100 | Morningglory plant response rating (morningglory; [8]): 30 | Plant response rating, Morningglory (morningglory; [9]): 50 | Plant response rating, Surinam Grass (Surinam grass; [6]): 80 | Plant response rating, Surinam Grass (Surinam grass; [7]): 10 | Surinam Grass plant response rating (Surinam grass; [8]): 10 | Plant response rating, Surinam Grass (Surinam grass; [9]): 50 | Plant response rating, Pigweed (pigweed; [6]): 100 | Plant response rating, Pigweed (pigweed; [7]): 100 | Pigweed plant response rating (pigweed; [8]): 80 | Plant response rating, Pigweed (pigweed; [9]): 90 | Plant response rating, Barnyardgrass (barnyardgrass [3]; [6]): 90 | Plant response rating, Barnyardgrass (barnyardgrass [3]; [7]): 70 | Barnyardgrass plant response rating (barnyardgrass [3]; [8]): 10 | Plant response rating, Barnyardgrass (barnyardgrass [3]; [9]): 80 | Plant response rating, Lambsquarters (lambsquarters; [6]): 100 | Plant response rating, Lambsquarters (lambsquarters; [7]): 100 | Lambsquarters plant response rating (lambsquarters; [8]): 90 | Plant response rating, Lambsquarters (lambsquarters; [9]): 100 | Rice plant response rating (rice): 70
